From patent US20190336537A1, “GENERATING ATRIAL AND VENTRICULAR CARDIOMYOCYTE LINEAGES FROM HUMAN PLURIPOTENT STEM CELLS” (UNIVERSITY HEALTH NETWORK, priority 2016, published 2019)

Experiments:
[1] = test system: HES3 NKX2-5:GFP hESC-derived mesoderm; test: Specification of mesoderm populations to an atrial fate by ROH or RA (day 20 flow cytometry and qRT-PCR); type: cell-based, human
Description: To determine if the ALDH^+ cells can synthesize RA, the ALDH^+PDGFRalpha^+ and ALDH^− PDGFRalpha^+ fractions were isolated from the day 4 3B/2A-induced population, and the cells were cultured as aggregates in retinol (ROH), RA, or DMSO (control) for 24 hr (FIGS. 3A and 3B). ALDH1A2 expression segregated to the ALDH^+ fraction, confirming the validity of aldefluor-based sorting strategy for isolating RALDH2-expressing cells (FIG. 3C).
(§1) For cardiac differentiation, we used a modified version of our embryoid body (EB)-based protocol (Kattman et al., 2011). hPSC populations at 80%-90% confluence were dissociated into single cells (TrypLE, ThermoFisher) and re-aggregated to form EBs in StemPro-34 media (ThermoFisher) containing penicillin/streptomycin (1%, ThermoFisher), L-glutamine (2 mM, ThermoFisher), trans-ferrin (150 μg/ml, ROCHE), ascorbic acid (50 μg/ml, Sigma), and monothioglycerol (50 μg/ml, Sigma), ROCK inhibitor Y-27632 (10 μM, TOCRIS) and rhBMP4 (1 ng/ml, R&D) for 18 h on an orbital shaker. At day 1, the EBs were transferred to mesoderm induction media consisting of StemPro-34 with above supplements (-ROCK inhibitor Y-27632) and rhBMP4, rhActivinA (R&D) and rhbFGF (5 ng/ml, R&D) at the indicated concentrations. At day 3, the EBs were harvested, washed with IMDM and transferred to cardiac mesoderm specification media consisting of StemPro-34, the Wnt inhibitor IWP2 (1 μM, TOCRIS) and rhVEGF (10 ng/mL, R&D). At day 5, the EBs were transferred to Stem Pro-34 with rhVEGF (5 ng/ml) for another 7 days and then to Stem Pro-34 media without additional cytokines for further 8 days. At day 20, HES3-NKX2-5gfp/w-derived cardiomyocytes were analyzed and isolated based on the expression of NKX2-5:GFP and SIRPa and a lack of CD90. Cardiomyocytes generated from non-transgenic hPSC lines were analyzed and isolated as SIRPa+CD90− populations. Media was changed every 3 days. Cultures were incubated in a low oxygen environment (5% CO2, 5% O2, 90% N2) for first 12 days and a normoxic environment (5% CO2) for the following 8 days in total of 20 days. The EBs were cultured in ultra-low attachment 6-well dishes (Corning) throughout the differentiation for maintaining suspension cultures.
Following optimization, either ATRA (0.5 μM, Sigma) or retinol (2 μM, Sigma) was included in the cardiac mesoderm specification media from days 3-5 for the generation of atrial cardiomyocytes.
Day 2-6 EBs were dissociated with TrypLE for 2-4 min at room temperature (RT). Day 20 EBs were dissociated by incubation in Collagenase type 2 (0.5 mg/ml, Worthington) in HANKs buffer overnight at RT followed by TrypLE treatment as described above. The following antibodies were used for staining: anti-PDGFRa-PE (R&D Systems, 3:50), anti-CD235a-APC (BD PharMingen, 1:100), antiSIRPa-PeCy7 (Biolegend, 1:1000), anti-CD90-APC (BD PharMingen, 1:1000), anticardiac isoform of CTNT (ThermoFisher Scientific, 1:2000), or anti-myosin light chain 2 (Abcam, 1:1000). For unconjugated primary antibodies, the following secondary antibodies were used for detection: goat anti-mouse IgG-APC (BD Pharmigen, 1:250), or donkey anti-rabbit IgG-PE (Jackson ImmunoResearch, 1:250). Detailed antibody information is described in Table 2.
The Aldefluor™ assay (STEMCELL Technologies) was performed according to the instruction provided by the manufacturer. Briefly, day 2-6 EBs were dissociated as described above. […] Stained cells were analyzed as described above. […]

[2] = test system: HES2 human embryonic stem cell derived EBs; test: ROH/RA response of HES2-derived EBs (day 20 flow cytometry and qRT-PCR); type: cell-based; conditions: treated days 3 to 5
Description: To determine if the approach for optimizing atrial and ventricular differentiation based on ALDH activity and CD235a expression is broadly applicable, we next used it to generate these cardiomyocyte populations from the HES2 human embryonic stem cell and the MSC-iPS1 induced pluripotent stem cell lines. Titration studies identified 5B/2A and 5B/6A as optimal for atrial and ventricular inductions, respectively, for HES2 cells and 4B/4A as optimal for ventricular induction for MSCiPSC1 cells (FIGS. 7A, 7B, 7E, and 7F; Mendeley http://dx.doi.org/10.17632/7z7d5v2c3w.1). Optimization of atrial induction from the MSC-iPSC1 cells was more challenging, as all cytokine combinations promoted the development of a substantial CD235a+ population. One interpretation of these patterns is that the MSC-iPS1 cells have a high level of endogenous Nodal/Activin A signaling, resulting in the development of some CD235a+ cells under all conditions. To test this, we added the Nodal/Activin A/transforming growth factor beta (TGF-beta) inhibitor SB-431542 (SB) from days 3 to 5 to cells induced with 4B/1A.
as §1, with “The EBs were cultured in ultra-low attachment 6-well dishes (Corning) throughout the differentiation for maintaining suspension cultures.” left out

[3] = test system: HES3 NKX2-5:GFP hESC-derived mesoderm; test: Specification of mesoderm populations to an atrial fate by ROH or RA (day 20 flow cytometry and qRT-PCR); type: cell-based, human; conditions: day 4, 5B/4A induced

## CC1=C(/C=C/C(C)=C/C=C/C(C)=C/C(=O)O)C(C)(C)CCC1 [RA, all trans retinoic acid]
[1]; 5B/12A-induced EBs, treated days 3-5
  atrial specification (MLC2V+, IRX4, KCNJ3, NR2F2): able to induce an atrial-like cardiomyocyte phenotype
[1]; ALDH+PDGFRalpha+ fraction, day 4, 3B/2A induced, 24 hr treatment
  atrial specification (MLC2V+ frequency, IRX4, KCNJ3): similar
[2]; HES2, 5B/2A induced
  response of ALDH+ mesoderm (atrial expression profile): responded to both ROH and RA
[2]; HES2, 5B/6A induced
  response of CD235a+ mesoderm (MLC2V content, MYL2, IRX4, KCNJ3, NR2F2): both responded to RA
[3]; CD235a+ALDH− fraction
  atrial specification (MLC2V+, IRX4, NPPA, KCNJ3, NR2F2): responded to RA
[3]; CD235a−ALDH+ fraction
  atrial specification (MLC2V+, IRX4, NPPA, KCNJ3, NR2F2): responded to RA
